The results in this text go back to patent US8735388B2, “Heterocyclic compounds with affinity to muscarinic receptors” (Abbvie B. V. A., priority 2007, dated 2014).

Test [1] addresses T1, Muscarine M3 (GPCR-A-MA-ACH M3) (Homo sapiens, UniProt P20309).
T1 construct: expressed in transfected cells; host or cells: CHO cells
Put plainly: Muscarine M3 receptor binding.

In test [2] the target is T2, Muscarine M4 (GPCR-A-MA-ACH M4) (Homo sapiens, UniProt P08173).
T2 construct: expressed in transfected cells; host or cells: CHO cells
T2 sequence (P08173 1-479): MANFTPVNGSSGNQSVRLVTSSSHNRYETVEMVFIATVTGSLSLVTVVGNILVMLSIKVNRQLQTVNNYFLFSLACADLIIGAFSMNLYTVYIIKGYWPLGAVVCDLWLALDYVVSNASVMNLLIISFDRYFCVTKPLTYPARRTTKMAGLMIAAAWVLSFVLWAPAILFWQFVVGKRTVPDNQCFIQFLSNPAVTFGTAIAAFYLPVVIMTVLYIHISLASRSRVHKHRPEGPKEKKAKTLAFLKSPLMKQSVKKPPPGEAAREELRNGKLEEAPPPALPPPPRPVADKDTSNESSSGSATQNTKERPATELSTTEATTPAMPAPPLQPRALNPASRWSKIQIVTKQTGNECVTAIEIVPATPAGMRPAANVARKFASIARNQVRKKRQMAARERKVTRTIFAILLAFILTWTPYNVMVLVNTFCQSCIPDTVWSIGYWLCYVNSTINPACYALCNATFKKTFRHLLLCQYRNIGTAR
Put plainly: Muscarine M4 cell-based functional assay (CHO cells, Ca2+ - Aequorin luminescence). The method, then: Compounds were dissolved in DMSO (10 mM) and diluted in assay buffer to test concentration. Prime testing was at 1 μM; for actives in antagonist mode (PI, percent inhibition with respect to reference agonist and blank>30%) as well as actives in agonist mode (PS, percent stimulation with respect to reference agonist and blank>30%) testing was continued at lower concentrations in 10-fold dilutions: 0.1 μM, 0.01 μM, etc.
Cells were incubated with compound and the response indicated was measured.
The results are expressed as a percent of reference agonist values and blanks in the presence of the test compound, percent stimulation for agonist mode; for the antagonist mode (test compound in the presence of reference agonist) as percent inhibition. The EC50 values (concentration causing a half-maximal stimulation of control values), IC50 values (concentration causing a half-maximal inhibition of control values) were determined by non-linear regression analysis of the concentration-response curves using Hill equation curve fitting.

Test [3] has as its target T3, Muscarine M1 (GPCR-A-MA-ACH M1) (Homo sapiens, UniProt P11229).
T3 construct: expressed in transfected cells; host or cells: CHO cells
T3 sequence (P11229 1-460): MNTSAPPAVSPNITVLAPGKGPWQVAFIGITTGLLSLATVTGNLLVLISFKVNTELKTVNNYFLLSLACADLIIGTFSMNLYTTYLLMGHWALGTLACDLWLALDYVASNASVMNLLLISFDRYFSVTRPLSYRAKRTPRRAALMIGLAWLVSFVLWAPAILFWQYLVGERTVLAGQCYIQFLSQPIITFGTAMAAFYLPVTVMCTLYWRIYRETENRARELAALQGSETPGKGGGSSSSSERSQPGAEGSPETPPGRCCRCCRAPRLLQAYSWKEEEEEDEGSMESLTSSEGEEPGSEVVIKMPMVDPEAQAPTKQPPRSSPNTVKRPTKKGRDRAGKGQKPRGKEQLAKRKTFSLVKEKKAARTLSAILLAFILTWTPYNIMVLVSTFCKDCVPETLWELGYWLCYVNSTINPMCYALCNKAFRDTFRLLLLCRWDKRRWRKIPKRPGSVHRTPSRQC
Put plainly: Muscarine M1 receptor binding, 3H-Pirenzepine. To be noted: human M1, CHO cells, ligand 2 nM, 60 min/22° C.; for Ki: read-out: RB Musc. M1 3H-Pirenzepine pKi (converted). The procedure: (§1) Compounds were dissolved in DMSO (10 mM) and diluted in assay buffer to test concentration. Prime testing was at 10 μM; for actives (PI, percent inhibition with respect to total and non-specific binding >40%) testing was continued at lower concentrations in 10-fold dilutions: 1 μM, 0.1 μM, etc.
(§2) Following incubation of compound with the receptor preparation (from ‘Tissue’) and the Ligand at the time and temperature indicated, the receptor preparations were rapidly filtered under vacuum through glass fibre filters; the filters were washed extensively with an ice-cold buffer using a harvester. Bound radioactivity was measured by scintillation counting using a liquid scintillation cocktail.
(§3) Results were expressed as percentage of total Ligand binding and that of Non Specific Binding, per concentration of Compound tested (duplicates); from the concentration—displacement curves IC50 values were determined by non-linear regression analysis using Hill equation curve fitting. The inhibition constants (Ki) were calculated from the Cheng-Prushoff equation Ki=IC50/(1+L/Kd), where L is the concentration of radioligand in the assay, and Kd the affinity of the radioligand for the receptor. Results were expressed as pKi's, means±SD of at least 2 separate experiments; i.e. outliers (outside+/−1 std of mean) and discrepancies were excluded.

Test [4] concerns the target T4, Muscarine M2 (GPCR-A-MA-ACH M2) (Cavia porcellus, UniProt H0VRN8).
T4 construct: from tissue; host or cells: guinea pig left atrium (electrically paced)
T4 sequence (H0VRN8 1-466): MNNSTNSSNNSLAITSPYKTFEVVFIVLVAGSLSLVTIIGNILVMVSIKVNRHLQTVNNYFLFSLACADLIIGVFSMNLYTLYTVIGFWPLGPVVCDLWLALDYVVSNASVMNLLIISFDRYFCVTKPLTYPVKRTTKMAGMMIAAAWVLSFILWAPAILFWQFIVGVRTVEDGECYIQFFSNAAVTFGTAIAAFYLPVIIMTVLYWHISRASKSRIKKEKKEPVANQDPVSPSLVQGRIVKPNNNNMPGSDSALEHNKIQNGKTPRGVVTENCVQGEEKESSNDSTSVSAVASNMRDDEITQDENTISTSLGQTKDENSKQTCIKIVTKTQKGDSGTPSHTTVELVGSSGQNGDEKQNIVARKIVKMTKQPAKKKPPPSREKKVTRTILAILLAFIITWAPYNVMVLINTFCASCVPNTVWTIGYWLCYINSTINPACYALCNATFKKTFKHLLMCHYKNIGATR
Put plainly: Muscarine M2 functional assay, isolated organ (left atrium, electrically paced), agonist and antagonist mode. Also on record: species or system Guinea Pig. Conditions: for EC50: read-out: Cell funct. Musc. M2 Agonism pEC50 (converted).

In test [5] the target is T5, Muscarine M3 (GPCR-A-MA-ACH M3) (Cavia porcellus, UniProt H0W1Z3).
T5 construct: from tissue; host or cells: guinea pig ileum
Put plainly: Muscarine M3 functional assay, isolated organ (ileum), agonist and antagonist mode. To be noted: for EC50: read-out: Cell funct. Musc. M3 Agonism pEC50 (converted). Also on record: species or system Guinea Pig.

The target of test [6] is T6, Muscarine M2 (GPCR-A-MA-ACH M2) (Homo sapiens, UniProt P08172).
T6 construct: expressed in transfected cells; host or cells: CHO cells
T6 sequence (P08172 1-466): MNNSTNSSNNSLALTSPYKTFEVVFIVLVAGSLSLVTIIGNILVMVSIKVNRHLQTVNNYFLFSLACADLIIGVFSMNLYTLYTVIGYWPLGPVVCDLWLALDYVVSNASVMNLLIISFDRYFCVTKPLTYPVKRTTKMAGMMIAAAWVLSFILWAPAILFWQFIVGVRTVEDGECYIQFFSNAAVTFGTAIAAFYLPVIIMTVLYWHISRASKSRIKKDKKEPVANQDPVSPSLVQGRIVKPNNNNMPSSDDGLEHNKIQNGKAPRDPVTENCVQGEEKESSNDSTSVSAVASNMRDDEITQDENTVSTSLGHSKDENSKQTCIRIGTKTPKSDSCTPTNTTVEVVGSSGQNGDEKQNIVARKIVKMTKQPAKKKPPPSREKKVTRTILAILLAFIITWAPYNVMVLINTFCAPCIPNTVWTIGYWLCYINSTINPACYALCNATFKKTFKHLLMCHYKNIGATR
Kind of test: Muscarine M2 receptor binding.

The target in test [7] is T2, Muscarine M4 (GPCR-A-MA-ACH M4). Put plainly: Muscarine M4 receptor binding, 3H-4DAMP. To be noted: human M4, CHO cells, ligand 0.2 nM, 60 min/22° C.; for Ki: read-out: RB Musc. M4 3H-DAMP pKi (converted). The method, then:
as §1, §2, §3

The target of test [8] is T3, Muscarine M1 (GPCR-A-MA-ACH M1). Kind of test: Muscarine M1 cell-based functional assay (CHO cells, Ca2+ - FLIPR Fluorimetry). Conditions: for EC50: read-out: Cell funct. Musc. M1 Agonism pEC50 (converted).
Test [9] addresses T2, Muscarine M4 (GPCR-A-MA-ACH M4). Put plainly: Muscarine M4 receptor binding, 3H-Oxotremorine. The procedure:
as §1, §2, §3

[10] abbreviates: human M3, CHO cells, receptor binding.
Setting [11] is: human M4, CHO cells, agonist mode, reference agonist oxotremorine, read-out: Cell funct. Musc. M4 Agonism pEC50 (converted).
The mark [12] stands for this setting: read-out: Cell funct. Musc. M2 Antagonism pA2 (converted).
Where [13] appears, read: human M2, CHO cells, receptor binding.
[14] abbreviates: human M1, CHO cells, agonist mode, reference agonist acetylcholine.
The mark [15] stands for this setting: human M4, CHO cells, receptor binding, ligand 6 nM, 30 min/25° C., read-out: RB Musc. M4 3H-Oxotremorine pKi (converted).

Molecules are shown by their SMILES. Like-named read-outs stand apart in the source and are kept apart here.

T1 sequence (P20309 whole entry): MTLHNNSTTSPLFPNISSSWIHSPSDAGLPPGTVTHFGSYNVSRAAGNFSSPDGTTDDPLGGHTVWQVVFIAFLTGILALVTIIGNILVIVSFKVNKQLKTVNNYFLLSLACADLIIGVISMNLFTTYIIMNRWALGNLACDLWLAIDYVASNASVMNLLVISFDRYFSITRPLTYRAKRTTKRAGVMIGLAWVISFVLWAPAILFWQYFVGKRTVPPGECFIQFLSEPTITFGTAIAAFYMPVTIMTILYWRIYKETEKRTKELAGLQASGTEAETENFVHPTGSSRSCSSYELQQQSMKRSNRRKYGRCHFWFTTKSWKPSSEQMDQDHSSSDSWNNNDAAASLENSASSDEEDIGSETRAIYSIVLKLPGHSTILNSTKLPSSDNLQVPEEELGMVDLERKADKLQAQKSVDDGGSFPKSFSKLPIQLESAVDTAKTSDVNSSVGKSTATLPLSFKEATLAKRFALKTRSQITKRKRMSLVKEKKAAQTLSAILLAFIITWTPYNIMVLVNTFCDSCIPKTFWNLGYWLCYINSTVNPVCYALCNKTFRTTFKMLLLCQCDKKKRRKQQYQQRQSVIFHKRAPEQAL
T5 sequence (H0W1Z3 1-590): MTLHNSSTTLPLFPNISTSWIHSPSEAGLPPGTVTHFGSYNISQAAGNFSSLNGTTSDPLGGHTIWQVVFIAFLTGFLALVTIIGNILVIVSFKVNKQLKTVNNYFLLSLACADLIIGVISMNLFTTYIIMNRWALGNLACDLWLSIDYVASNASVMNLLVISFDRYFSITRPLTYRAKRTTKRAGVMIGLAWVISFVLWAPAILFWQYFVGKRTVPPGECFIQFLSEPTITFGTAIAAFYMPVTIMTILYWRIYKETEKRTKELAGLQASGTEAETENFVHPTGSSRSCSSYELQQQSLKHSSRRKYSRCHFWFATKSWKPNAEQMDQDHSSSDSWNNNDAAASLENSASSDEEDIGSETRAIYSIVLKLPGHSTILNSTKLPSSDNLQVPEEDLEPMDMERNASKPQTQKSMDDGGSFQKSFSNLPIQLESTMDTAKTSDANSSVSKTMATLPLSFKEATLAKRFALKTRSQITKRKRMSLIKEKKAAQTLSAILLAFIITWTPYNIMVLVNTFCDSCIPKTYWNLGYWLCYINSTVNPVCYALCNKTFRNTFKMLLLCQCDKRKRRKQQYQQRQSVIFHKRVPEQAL

Regarding `CN1CCC=C(c2n[nH]cc2SCCCCCSc2c[nH]nc2C2=CCCN(C)C2)C1` [Compound 22C], the Ki in test [1] (setting [10]) was 31.6 nM; in test [3], 251 nM; in [6] (setting [13]), 398 nM; in test [7], 63.1 nM; in test [9] (setting [15]) it was 158 nM. Besides, the EC50 in test [2] (setting [11]) was above 10000 nM; in [4] it was above 1000 nM; in test [5], above 1000 nM; in test [8] (setting [14]) it was above 1000 nM. The Kb in test [4] (setting [12]) and in test [5] was above 1000 nM each time.
For the molecule `CC(C)CCSc1c[nH]nc1C1=CCCN(C)C1` [Compound 22S, 3-[4-(3-methyl-butylsulfanyl)-1H-pyrazol-3-yl]-1,2,5,6-tetrahydro-1-methylpyridine], the Ki in test [1] (setting [10]) is 50.1 nM; in [3], 126 nM; in [6] (setting [13]), 2000 nM; in test [7], 50.1 nM; in [9] (setting [15]), 158 nM. In addition, the EC50 in [2] (setting [11]) was above 10000 nM; in [4], above 1000 nM; in test [5], above 1000 nM; in test [8] (setting [14]), 398 nM. Besides, the Kb is above 1000 nM in test [4] (setting [12]) and 100 nM in [5].
Regarding `CCCCCCOc1c[nH]nc1C1=CCCN(C)C1` [Compound 33B, 3-(4-Hexyloxy-1H-pyrazol-3-yl]-1,2,5,6-tetrahydro-1-methylpyridine], the Ki was 398 nM in test [1] (setting [10]); 1000 nM in test [3]; 1260 nM in [6] (setting [13]); 316 nM in test [7]; 200 nM in test [9] (setting [15]). Besides, the EC50 is 501 nM in test [2] (setting [11]), above 1000 nM in [4], above 1000 nM in test [5] and 100 nM in test [8] (setting [14]). Moreover, the Kb in test [4] (setting [12]) and in test [5] was above 1000 nM in each case.
Consider `CCCSc1c[nH]nc1C1CN2CCC1CC2` (stereo not shown) [Compound 49E, 3-(4-Propylsulfanyl-1H-pyrazol-3-yl)-1-azabicyclo[2.2.2]octane], for which the Ki in test [1] is 126 nM; in test [3] it was 316 nM; in test [6], 501 nM; in [7] it was 39.8 nM; in [9] it was 79.4 nM. For the same molecule, the EC50 in test [2] was 79.4 nM; in test [4], 794 nM; in test [5] it was above 1000 nM; in test [8], 10 nM. In addition, the Kb in test [4] and in test [5] was above 1000 nM throughout.
With `c1ccc(CCSc2c[nH]nc2C2CN3CCC2CC3)cc1` (stereo not shown) [Compound 49G, 3-(4-Phenethylsulfanyl-1H-pyrazol-3-yl)-1-azabicyclo[2.2.2]octane], the “RB Musc M3 4-DAMP” value in test [1] was found to be 6.5. Also, the “Cell funct. Musc. M4 Agonism pEC50” value in test [2] came out at 8.0. The “RB Musc. M1 3H-Pirenzepine pKi” value in [3] worked out at 6.2. Moreover, in test [4], the “Cell funct. Musc. M2 Agonism pEC50” value is on record as below 6 and the “Cell funct. Musc. M2 Antagonism pA2” value is given as below 6. In addition, in test [5], the “Cell funct. Musc. M3 Agonism pEC50” value is reported as below 6 and the “Cell funct. Musc. M3 Antagonism pA2” value is given as below 6. Further, the “RB Musc M2 methoctramine” value in test [6] came out at 6.1. Further, the “RB Musc. M4 3H-DAMP pKi” value in [7] was determined as 7.0. Further, the “Cell funct. Musc. M1 Agonism pEC50” value in [8] came to 7.3. In addition, the “RB Musc. M4 3H-Oxotremorine pKi” value in [9] is reported as 7.6.
Turning to `CCCCOc1c[nH]nc1C1CN2CCC1CC2` (stereo not shown) [Compound 52A, 3-(4-Butoxy-1H-pyrazol-3-yl)-1-azabicyclo[2.2.2]octane], the Ki in [1] is 794 nM; in test [3], 794 nM; in test [6], 3980 nM; in [7], 251 nM; in [9], 126 nM. Besides, the Kb in [4] and in test [5] was above 1000 nM throughout. Moreover, the EC50 was above 1000 nM in [4], above 1000 nM in test [5] and 20 nM in test [8].
For `CCCCCOc1c[nH]nc1C1CN2CCC1CC2` (stereo not shown) [Compound 52C, 3-(4-Pentyloxy-1H-pyrazol-3-yl)-1-azabicyclo[2.2.2]octane], the Ki in test [1] is 631 nM; in test [3], 1000 nM; in test [6], 2510 nM; in [7] it was 251 nM; in test [9] it was 63.1 nM. The Kb in [4] and in [5] was above 1000 nM throughout. In addition, the EC50 in test [4] is above 1000 nM; in [5] it was above 1000 nM; in test [8], 12.6 nM.
Regarding `COc1ccccc1CNCCCCCCNCCCCCCCCNCCCCCCNCc1ccccc1OC` [Methoctramine, reference compound], in [4], the Kb was 12.6 nM.
